{"source": "paper PMC4138103", "about": "(PLoS ONE, 2014)", "system": "Sprague-Dawley rats", "test": "Bone biomechanics, three-point bending test of tibial shaft", "format": "in vivo, Rattus norvegicus", "parameters": "key to Dose response: Biomechanics, diaphysis, Yield Force: D: significant dose response (for results, see Table 2); T: significant trend", "conditions": "for Emax: Rattus norvegicus; for F yield, CED / F yield, CED-L: total dose based", "protocol": "For biomechanical testing hind limbs were defrosted and tibial shafts tested with a three-point bending test using a custom made testing apparatus, [34]. Each bone was placed on a support with a span length of 13 mm and bending load was applied with a constant speed of 0.155 mm/sec until failure. The breaking force, bending stiffness and yield force were defined from load-displacement data. Stiffness was calculated as the slope of the linear part of load-displacement curve. Yield force was defined as a corresponding force where the fit for stiffness separated from the measured load-displacement curve. The breaking force was defined as bending load at maximum. Corresponding to these forces also both failure and yield deformations were evaluated.\nData were also analyzed using the BMD method, which is based on dose-response modeling of the full data set using a nested family of exponential and Hill models. The analyses were done on data of males and females combined, using sex as a covariate. […] In that case, different Critical Effect Doses (CEDs) and CEDs at the lowest bound of the confidence interval (CED-L) were generated for each sex. If no difference between sexes is detected, a CED and CED-Ls for the combined data is generated. However, this was also done if the curve fits are close, and separate analyses for males and females were then performed manually. CEDs and CED-Ls were calculated at the predefined Critical Effect Size (CES) of 5% (EFSA standard) or 10%.", "key": {"[1]": {"conditions": "F, CES 5%, model E2, adipose tissue concentration based"}, "[2]": {"conditions": "F, CES 10%, model E2, adipose tissue concentration based"}, "[3]": {"conditions": "tibia, females, total dose 3 mg/kg bw"}, "[4]": {"conditions": "tibia, females, total dose 10 mg/kg bw"}, "[5]": {"conditions": "tibia, females, total dose 30 mg/kg bw"}, "[6]": {"conditions": "tibia, females, total dose 100 mg/kg bw"}, "[7]": {"conditions": "tibia, females, total dose 300 mg/kg bw"}, "[8]": {"conditions": "tibia, females, total dose 1000 mg/kg bw"}, "[9]": {"conditions": "tibia, females, total dose 1700 mg/kg bw"}, "[10]": {"conditions": "tibia, males, total dose 3 mg/kg bw"}, "[11]": {"conditions": "tibia, males, total dose 10 mg/kg bw"}, "[12]": {"conditions": "tibia, males, total dose 30 mg/kg bw"}, "[13]": {"conditions": "tibia, males, total dose 100 mg/kg bw"}, "[14]": {"conditions": "tibia, males, total dose 300 mg/kg bw"}, "[15]": {"conditions": "tibia, males, total dose 1000 mg/kg bw"}, "[16]": {"conditions": "tibia, males, total dose 1700 mg/kg bw"}}, "note": "Read-outs that look alike come from different tables or passages of the source.", "data": [{"compound": "Clc1cc(Cl)c(-c2cc(Cl)c(Cl)c(Cl)c2Cl)cc1Cl", "note": "[PCB 180, 2,2′,3′,4,4′,5,5′-heptachlorobiphenyl]", "values": [{"measurement": "CED, F yield", "setting": "[1]", "value": 2860, "unit": "µg/g lipid"}, {"measurement": "CED-L, F yield", "setting": "[1]", "value": 1647, "unit": "µg/g lipid"}, {"measurement": "CED, F yield", "setting": "[2]", "value": 5880, "unit": "µg/g lipid"}, {"measurement": "CED-L, F yield", "setting": "[2]", "value": 3384, "unit": "µg/g lipid"}, {"measurement": "Emax", "setting": "F, model E2, controls vs high dose according to the fitted model, read-out: Maximum response, F yield", "value": -18.3, "unit": "%"}, {"measurement": "Emax", "setting": "females, controls vs high dose, fitted model, read-out: F yield, Maximum response", "value": -16.7, "unit": "%"}, {"measurement": "F yield, CED", "setting": "females, CES 5%", "value": 476, "unit": "mg/kg bw"}, {"measurement": "F yield, CED-L", "setting": "females, CES 5%", "value": 266, "unit": "mg/kg bw"}, {"measurement": "F yield, CED", "setting": "females, CES 10%", "value": 978, "unit": "mg/kg bw"}, {"measurement": "F yield, CED-L", "setting": "females, CES 10%", "value": 547, "unit": "mg/kg bw"}, {"measurement": "Yield force of tibial shaft, CED", "setting": "females, adipose tissue concentration based", "value": 2860, "unit": "µg/g lipid"}, {"measurement": "Biomechanics, diaphysis: Ultimate Deformation", "setting": "[3]", "value": 0.601, "unit": "mm"}, {"measurement": "Biomechanics, diaphysis: Ultimate Force", "setting": "[3]", "value": 108, "unit": "N"}, {"measurement": "Biomechanics, diaphysis: Yield Deformation", "setting": "[3]", "value": 0.291, "unit": "mm"}, {"measurement": "Biomechanics, diaphysis: Yield Force", "setting": "[3]", "value": 72.2, "unit": "N"}, {"measurement": "Biomechanics, diaphysis: Ultimate Deformation", "setting": "[4]", "value": 0.634, "unit": "mm"}, {"measurement": "Biomechanics, diaphysis: Ultimate Force", "setting": "[4]", "value": 106, "unit": "N"}, {"measurement": "Biomechanics, diaphysis: Yield Deformation", "setting": "[4]", "value": 0.295, "unit": "mm"}, {"measurement": "Biomechanics, diaphysis: Yield Force", "setting": "[4]", "value": 65.9, "unit": "N"}, {"measurement": "Biomechanics, diaphysis: Ultimate Deformation", "setting": "[5]", "value": 0.763, "unit": "mm"}, {"measurement": "Biomechanics, diaphysis: Ultimate Force", "setting": "[5]", "value": 112, "unit": "N"}, {"measurement": "Biomechanics, diaphysis: Yield Deformation", "setting": "[5]", "value": 0.378, "unit": "mm"}, {"measurement": "Biomechanics, diaphysis: Yield Force", "setting": "[5]", "value": 81.2, "unit": "N"}, {"measurement": "Biomechanics, diaphysis: Ultimate Deformation", "setting": "[6]", "value": 0.622, "unit": "mm"}, {"measurement": "Biomechanics, diaphysis: Ultimate Force", "setting": "[6]", "value": 100, "unit": "N"}, {"measurement": "Biomechanics, diaphysis: Yield Deformation", "setting": "[6]", "value": 0.360, "unit": "mm"}, {"measurement": "Biomechanics, diaphysis: Yield Force", "setting": "[6]", "value": 79.7, "unit": "N"}, {"measurement": "Biomechanics, diaphysis: Ultimate Deformation", "setting": "[7]", "value": 0.640, "unit": "mm"}, {"measurement": "Biomechanics, diaphysis: Ultimate Force", "setting": "[7]", "value": 104, "unit": "N"}, {"measurement": "Biomechanics, diaphysis: Yield Deformation", "setting": "[7]", "value": 0.341, "unit": "mm"}, {"measurement": "Biomechanics, diaphysis: Yield Force", "setting": "[7]", "value": 76.7, "unit": "N"}, {"measurement": "Biomechanics, diaphysis: Ultimate Deformation", "setting": "[8]", "value": 0.645, "unit": "mm"}, {"measurement": "Biomechanics, diaphysis: Ultimate Force", "setting": "[8]", "value": 105, "unit": "N"}, {"measurement": "Biomechanics, diaphysis: Yield Deformation", "setting": "[8]", "value": 0.316, "unit": "mm"}, {"measurement": "Biomechanics, diaphysis: Yield Force", "setting": "[8]", "value": 71.4, "unit": "N"}, {"measurement": "Biomechanics, diaphysis: Ultimate Deformation", "setting": "[9]", "value": 0.691, "unit": "mm"}, {"measurement": "Biomechanics, diaphysis: Ultimate Force", "setting": "[9]", "value": 109, "unit": "N"}, {"measurement": "Biomechanics, diaphysis: Yield Deformation", "setting": "[9]", "value": 0.276, "unit": "mm"}, {"measurement": "Biomechanics, diaphysis: Yield Force", "setting": "[9]", "value": 60.4, "unit": "N"}, {"measurement": "Dose response: Biomechanics, diaphysis, Yield Force", "setting": "tibia, females, total doses 0-1700 mg/kg bw", "value": "D"}, {"measurement": "Biomechanics, diaphysis: Ultimate Deformation", "setting": "[10]", "value": 0.888, "unit": "mm"}, {"measurement": "Biomechanics, diaphysis: Ultimate Force", "setting": "[10]", "value": 123, "unit": "N"}, {"measurement": "Biomechanics, diaphysis: Yield Deformation", "setting": "[10]", "value": 0.423, "unit": "mm"}, {"measurement": "Biomechanics, diaphysis: Yield Force", "setting": "[10]", "value": 84.8, "unit": "N"}, {"measurement": "Biomechanics, diaphysis: Ultimate Deformation", "setting": "[11]", "value": 0.727, "unit": "mm"}, {"measurement": "Biomechanics, diaphysis: Ultimate Force", "setting": "[11]", "value": 131, "unit": "N"}, {"measurement": "Biomechanics, diaphysis: Yield Deformation", "setting": "[11]", "value": 0.333, "unit": "mm"}, {"measurement": "Biomechanics, diaphysis: Yield Force", "setting": "[11]", "value": 71.9, "unit": "N"}, {"measurement": "Biomechanics, diaphysis: Ultimate Deformation", "setting": "[12]", "value": 0.704, "unit": "mm"}, {"measurement": "Biomechanics, diaphysis: Ultimate Force", "setting": "[12]", "value": 122, "unit": "N"}, {"measurement": "Biomechanics, diaphysis: Yield Deformation", "setting": "[12]", "value": 0.346, "unit": "mm"}, {"measurement": "Biomechanics, diaphysis: Yield Force", "setting": "[12]", "value": 78.4, "unit": "N"}, {"measurement": "Biomechanics, diaphysis: Ultimate Deformation", "setting": "[13]", "value": 0.786, "unit": "mm"}, {"measurement": "Biomechanics, diaphysis: Ultimate Force", "setting": "[13]", "value": 130, "unit": "N"}, {"measurement": "Biomechanics, diaphysis: Yield Deformation", "setting": "[13]", "value": 0.395, "unit": "mm"}, {"measurement": "Biomechanics, diaphysis: Yield Force", "setting": "[13]", "value": 87.0, "unit": "N"}, {"measurement": "Biomechanics, diaphysis: Ultimate Deformation", "setting": "[14]", "value": 0.758, "unit": "mm"}, {"measurement": "Biomechanics, diaphysis: Ultimate Force", "setting": "[14]", "value": 132, "unit": "N"}, {"measurement": "Biomechanics, diaphysis: Yield Deformation", "setting": "[14]", "value": 0.295, "unit": "mm"}, {"measurement": "Biomechanics, diaphysis: Yield Force", "setting": "[14]", "value": 69.0, "unit": "N"}, {"measurement": "Biomechanics, diaphysis: Ultimate Deformation", "setting": "[15]", "value": 0.772, "unit": "mm"}, {"measurement": "Biomechanics, diaphysis: Ultimate Force", "setting": "[15]", "value": 120, "unit": "N"}, {"measurement": "Biomechanics, diaphysis: Yield Deformation", "setting": "[15]", "value": 0.446, "unit": "mm"}, {"measurement": "Biomechanics, diaphysis: Yield Force", "setting": "[15]", "value": 93.0, "unit": "N"}, {"measurement": "Biomechanics, diaphysis: Ultimate Deformation", "setting": "[16]", "value": 0.769, "unit": "mm"}, {"measurement": "Biomechanics, diaphysis: Ultimate Force", "setting": "[16]", "value": 118, "unit": "N"}, {"measurement": "Biomechanics, diaphysis: Yield Deformation", "setting": "[16]", "value": 0.346, "unit": "mm"}, {"measurement": "Biomechanics, diaphysis: Yield Force", "setting": "[16]", "value": 81.2, "unit": "N"}]}]}
